Data published in patent US20230330180A1 (priority 2022, published 2023).

System: SARS-CoV-2 KOR-KCDC03-2020 strain
Experiment: Prophylactic immunofluorescent infection assay in Vero E6 cells
Format: cell-based
Details: Severe acute respiratory syndrome coronavirus 2, compound added one hour prior to virus, MOI 0.0125, 24 hours

Compound: CCC(CC)COC(=O)[C@H](C)N[P@](=O)(OC[C@H]1O[C@@](C#N)(c2ccc3c(N)ncnn23)[C@H](O)[C@@H]1O)Oc1ccccc1 [Remdesivir, remdesivir]
- EC50: 12.9 µM
